For the assay, the target named is T1, human PPARα (Homo sapiens, UniProt Q07869).
T1 construct: expressed in transfected cells; host or cells: Cos-7 cells (ATCC, CRL-1651)
T1 sequence (Q07869 239-466 limits assumed): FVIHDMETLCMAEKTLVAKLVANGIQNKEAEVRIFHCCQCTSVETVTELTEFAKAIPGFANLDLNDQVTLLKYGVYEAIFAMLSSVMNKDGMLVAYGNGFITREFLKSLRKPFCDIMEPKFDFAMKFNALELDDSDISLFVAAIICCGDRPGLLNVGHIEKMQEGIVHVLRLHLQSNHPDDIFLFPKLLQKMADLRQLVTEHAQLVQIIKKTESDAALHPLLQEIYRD
The assay can be described thus: Reporter gene transactivation, hPPAR-GAL4 alpha. The assay is classed as cell-based. Particulars: transfected Cos-7 cells, Gal-4 luciferase reporter, 24 hours treatment. For orientation: Reporter assays use an easily measured gene product as a stand-in for the process of interest.
A word on the EC50: it is the concentration needed to bring the measured effect to its halfway point. Read a low EC50 as a more potent agent. For the molecule `CCOC(=O)C(C)(C)Oc1cccc(CCCOc2nn(CCCC(F)(F)F)c(=O)n(C)c2=O)c1` [Example 4, Ethyl 2-methyl-2-(3-{3-[4-methyl-3,5-dioxo-2-(4,4,4-trifluoro-butyl)-2,3,4,5-tetrahydro-[1,2,4]triazin-6-yloxy]-propyl}-phenoxy)-propionate], the EC50 was > 10 µM.
The figure for `CCOC(=O)C(C)(C)Oc1ccc(OCCNc2nn(CCCC3CCCCC3)c(=O)n(CCCC3CCCCC3)c2=O)cc1` [Example 43, Ethyl 2-(4-{2-[2,4-bis-(3-cyclohexylpropyl)-3,5-dioxo-2,3,4,5-tetrahydro-[1,2,4]triazin-6-ylamino]-ethoxy}-phenoxy)-2-methyl-propionate] is ~3 µM; for `CCCCCCCn1c(=O)c(NCCc2cccc(OC(C)(C)C(=O)OCC)c2)nn(CCCC(F)(F)F)c1=O` [Example 60, Ethyl 2-(3-{2-[4-heptyl-3,5-dioxo-2-(4,4,4-trifluoro-butyl)-2,3,4,5-tetrahydro-[1,2,4]triazin-6-ylamino]-ethyl}-phenoxy)-2-methyl-propionate] it is > 10 µM; for `CCCCn1c(=O)c(OCCc2ccccc2OC(C)(C)C(=O)OCC)nn(C)c1=O` [Example 1, Ethyl 2-{2-[2-(4-butyl-2-methyl-3,5-dioxo-2,3,4,5-tetrahydro-[1,2,4]triazin-6-yloxy)-ethyl]-phenoxy}-2-methyl-propionate] it is 3 to 10 µM.
For the molecule `CCOC(=O)C(C)(C)Oc1cccc(CCNc2nn(C)c(=O)n(CCCC(F)(F)F)c2=O)c1` [Example 58, Ethyl 2-methyl-2-(3-{2-[2-methyl-3,5-dioxo-4-(4,4,4-trifluoro-butyl)-2,3,4,5-tetrahydro-[1,2,4]triazin-6-ylamino]-ethyl}-phenoxy)-propionate], the EC50 is > 10 µM.
For `CCCCCCCn1c(=O)c(NCCCCc2cccc(SC(C)(C)C(=O)OCC)c2)nn(CCCC(F)(F)F)c1=O` [Example 97, Ethyl 2-(3-{4-[4-heptyl-3,5-dioxo-2-(4,4,4-trifluoro-butyl)-2,3,4,5-tetrahydro-[1,2,4]triazin-6-ylamino]-butyl}-phenylsulfanyl)-2-methyl-propionate] the value was 1 to 3 µM; for `CCOC(=O)C(C)(C)Oc1ccc(CCNc2nn(CCCC(F)(F)F)c(=O)n(C)c2=O)cc1` [Example 102, Ethyl 2-methyl-2-(4-{2-[4-methyl-3,5-dioxo-2-(4,4,4-trifluoro-butyl)-2,3,4,5-tetrahydro-[1,2,4]triazin-6-ylamino]-ethyl}-phenoxy)-propionate], > 10 µM; for `CCCCCCCn1c(=O)c(NCCc2cccc(SC(C)(C)C(=O)OCC)c2)nn(C)c1=O` [Example 61, Ethyl 2-{3-[2-(4-heptyl-2-methyl-3,5-dioxo-2,3,4,5-tetrahydro-[1,2,4]triazin-6-ylamino)-ethyl]-phenylsulfanyl}-2-methyl-propionate], ~3 µM.
For `CCOC(=O)C(C)(C)Oc1cccc(CCCNc2nn(CCCC(F)(F)F)c(=O)n(Cc3ccccc3)c2=O)c1` [Example 71, Ethyl 2-(3-{3-[4-benzyl-3,5-dioxo-2-(4,4,4-trifluoro-butyl)-2,3,4,5-tetrahydro-[1,2,4]triazin-6-ylamino]-propyl}-phenoxy)-2-methyl-propionate] the value was ~1 µM; for `CCCCCCCn1c(=O)c(N(CCc2ccccc2)CCc2ccc(OC(C)(C)C(=O)OCC)cc2)nn(C)c1=O` [Example 116, Ethyl 2-(4-{2-[(4-heptyl-2-methyl-3,5-dioxo-2,3,4,5-tetrahydro-[1,2,4]triazin-6-yl)-phenethyl-amino]-ethyl}-phenoxy)-2-methyl-propionate], ~10 µM.
The figure for `CCCCCCCn1nc(OCCCc2cccc(SC(C)(C)C(=O)OCC)c2)c(=O)n(C)c1=O` [Example 32, Ethyl 2-{3-[3-(2-heptyl-4-methyl-3,5-dioxo-2,3,4,5-tetrahydro-[1,2,4]triazin-6-yloxy)-propyl]-phenylsulfanyl}-2-methyl-propionate] is 1 to 3 µM; for `CCCCCCCn1nc(NCCCCc2cccc(OC(C)(C)C(=O)OC(C)(C)C)c2)c(=O)n(CCCC(F)(F)F)c1=O` [Example 83, Tert-butyl 2-(3-{4-[2-heptyl-3,5-dioxo-4-(4,4,4-trifluoro-butyl)-2,3,4,5-tetrahydro-[1,2,4]triazin-6-ylamino]-butyl}-phenoxy)-2-methyl-propionate] it is > 10 µM; for `CCCCCCCn1c(=O)c(NCCc2ccc(OC(C)(C)C(=O)OCC)cc2)nn(CCCC(F)(F)F)c1=O` [Example 107, Ethyl 2-(4-{2-[4-heptyl-3,5-dioxo-2-(4,4,4-trifluoro-butyl)-2,3,4,5-tetrahydro-[1,2,4]triazin-6-ylamino]-ethyl}-phenoxy)-2-methyl-propionate] it is ~1 µM.
As to `CCOC(=O)C(C)(C)Oc1cccc(CCCNc2nn(CCCC(F)(F)F)c(=O)n(C)c2=O)c1` [Example 62, Ethyl 2-methyl-2-(3-{3-[4-methyl-3,5-dioxo-2-(4,4,4-trifluoro-butyl)-2,3,4,5-tetrahydro-[1,2,4]triazin-6-ylamino]-propyl}-phenoxy)-propionate], the EC50 is > 10 µM.
The figure for `CCOC(=O)C(C)(C)Sc1cccc(CCCCNc2nn(CCCC(F)(F)F)c(=O)n(C)c2=O)c1` [Example 93, Ethyl 2-methyl-2-(3-{4-[4-methyl-3,5-dioxo-2-(4,4,4-trifluoro-butyl)-2,3,4,5-tetrahydro-[1,2,4]triazin-6-ylamino]-butyl}-phenylsulfanyl)-propionate] is > 10 µM.
For `CCCCCCCN(CCCCOc1cccc(SC(C)(C)C(=O)OCC)c1)c1nn(C)c(=O)n(C)c1=O` [Example 54, Ethyl 2-(3-{4-[(2,4-Dimethyl-3,5-dioxo-2,3,4,5-tetrahydro-[1,2,4]triazin-6-yl)-heptyl-amino]-butoxy}-phenylsulfanyl)-2-methyl-propionate] the value was > 10 µM.
For `CCOC(=O)C(C)(C)Oc1ccc(CCCCOc2nn(CCCC(F)(F)F)c(=O)n(C)c2=O)cc1` [Example 28, Ethyl 2-methyl-2-(4-{4-[4-methyl-3,5-dioxo-2-(4,4,4-trifluoro-butyl)-2,3,4,5-tetrahydro-[1,2,4]triazin-6-yloxy]-butyl}-phenoxy)-propionate] the value was ~10 µM; for `CCOC(=O)C(C)(C)Oc1ccc(CCN(CCc2ccccc2)c2nn(C)c(=O)n(C)c2=O)cc1` [Example 114, Ethyl 2-(4-{2-[(2,4-dimethyl-3,5-dioxo-2,3,4,5-tetrahydro-[1,2,4]triazin-6-yl)-phenethyl-amino]-ethyl}-phenoxy)-2-methyl-propionate], ~10 µM; for `CCCCCCCn1nc(NCCCCc2cccc(SC(C)(C)C(=O)OCC)c2)c(=O)n(Cc2ccccc2)c1=O` [Example 101, Ethyl 2-{3-[4-(4-benzyl-2-heptyl-3,5-dioxo-2,3,4,5-tetrahydro-[1,2,4]triazin-6-ylamino)-butyl]-phenylsulfanyl}-2-methyl-propionate], 1 to 3 µM.
In the case of `CCOC(=O)C(C)(C)Oc1cccc(CCOc2nn(C)c(=O)n(CCCC(F)(F)F)c2=O)c1` [Example 3, Ethyl 2-methyl-2-(3-{2-[2-methyl-3,5-dioxo-4-(4,4,4-trifluoro-butyl)-2,3,4,5-tetrahydro-[1,2,4]triazin-6-yloxy]-ethyl}-phenoxy)-propionate], the EC50 was ~3 µM.
The figure for `CCOC(=O)C(C)(C)Oc1ccc(COc2nn(C)c(=O)n(CCCC(F)(F)F)c2=O)cc1` [Example 21, Ethyl 2-methyl-2-{4-[2-methyl-3,5-dioxo-4-(4,4,4-trifluoro-butyl)-2,3,4,5-tetrahydro-[1,2,4]triazin-6-yloxymethyl]-phenoxy}-propionate] is 3 to 10 µM.
The figure for `CCOC(=O)C(C)(C)Oc1ccc(CCOc2nn(CCCC(F)(F)F)c(=O)n(C)c2=O)cc1` [Example 24, Ethyl 2-methyl-2-(4-{2-[4-methyl-3,5-dioxo-2-(4,4,4-trifluoro-butyl)-2,3,4,5-tetrahydro-[1,2,4]triazin-6-yloxy]-ethyl}-phenoxy)-propionate] is > 10 µM; for `CCOC(=O)C(C)(C)Oc1ccccc1CCNc1nn(CCCC(F)(F)F)c(=O)n(CCCC(F)(F)F)c1=O` [Example 55, Ethyl 2-(2-{2-[3,5-Dioxo-2,4-bis-(4,4,4-trifluoro-butyl)-2,3,4,5-tetrahydro-[1,2,4]triazin-6-ylamino]-ethyl}-phenoxy)-2-methyl-propionate] it is > 10 µM.
The figure for `CCCCCCCn1c(=O)c(N(CCCc2ccccc2)CCc2ccc(OC(C)(C)C(=O)OCC)cc2)nn(C)c1=O` [Example 117, Ethyl 2-(4-{2-[(4-heptyl-2-methyl-3,5-dioxo-2,3,4,5-tetrahydro-[1,2,4]triazin-6-yl)-(3-phenyl-propyl)-amino]-ethyl}-phenoxy)-2-methyl-propionate] is ~10 µM; for `CCCCCCCn1nc(NCCCCc2cccc(SC(C)(C)C(=O)OCC)c2)c(=O)n(CCCCCCC)c1=O` [Example 98, Ethyl 2-{3-[4-(2,4-diheptyl-3,5-dioxo-2,3,4,5-tetrahydro-[1,2,4]triazin-6-ylamino)-butyl]-phenylsulfanyl}-2-methyl-propionate] it is > 10 µM; for `CCCCCCCn1c(=O)c(OCc2ccc(OC(C)(C)C(=O)OCC)cc2)nn(CCCC(F)(F)F)c1=O` [Example 23, Ethyl 2-{4-[4-heptyl-3,5-dioxo-2-(4,4,4-trifluoro-butyl)-2,3,4,5-tetrahydro-[1,2,4]triazin-6-yloxymethyl]-phenoxy}-2-methyl-propionate] it is 1 µM.
For `CCOC(=O)C(C)(C)Oc1cccc(CCCOc2nn(C)c(=O)n(CCCC(F)(F)F)c2=O)c1` [Example 6, Ethyl 2-methyl-2-(3-{3-[2-methyl-3,5-dioxo-4-(4,4,4-trifluoro-butyl)-2,3,4,5-tetrahydro-[1,2,4]triazin-6-yloxy]-propyl}-phenoxy)-propionate], the EC50 is ~0.3 µM.

The values are drawn from patent publication US7713971B2, “1,2,4-triazine derivatives, preparation and use thereof in human therapy” (Pierre Fabre Medicament, priority 2005, dated 2010).
